# Like-named read-outs stand apart in the source and are kept apart here.
# What was measured:
# Format in all cases: in vivo
# Plasmopara viticola = assay: Test A: grape downy mildew, spray after inoculation, visual disease rating (% disease control); details: 100 = 100% disease control, 0 = no control
# From the text: General protocol for preparing test suspensions for Test A-C: The test compounds were first dissolved in acetone in an amount equal to 3% of the final volume and then suspended at the desired concentration (in ppm) in acetone and purified water (50/50 mix by volume) containing 250 ppm of the surfactant Trem® 014 (polyhydric alcohol esters). The resulting test suspensions were then used in Tests A-C. Spraying a 200 ppm test suspension to the point of run-off on the test plants was equivalent to a rate of 500 g/ha.
# Grape seedlings were inoculated with a spore suspension of Plasmopara viticola (the causal agent of grape downy mildew) and incubated in a saturated atmosphere at 20° C. for 24 h. After a short drying period, the test suspension was sprayed to the point of run-off on the grape seedlings, which were then moved to a growth chamber at 20° C. for 5 days, after which time the grape seedling were placed back into a saturated atmosphere at 20° C. for 24 h. Upon removal, visual disease ratings were made.
# Results for Tests A-C are given in Table A. In the table, a rating of 100 indicates 100% disease control and a rating of 0 indicates no disease control (relative to the controls). A dash (-) indicates no test results, “*” indicates compound was tested at 40 ppm and “**” indicates compound was tested at 10 ppm.
# Phytophthora infestans [1] = details: tomato late blight, sprayed the day before inoculation
# Phytophthora infestans [2] = details: tomato late blight, sprayed 17 h after inoculation
# [3] = Cmpd No. unmarked, rate not stated in table (b1197 mentions a 200 ppm test suspension)
Compound,"Test A rating (% disease control) (Plasmopara viticola; ""*"" compound tested at 40 ppm)","Test B rating (% disease control) (Phytophthora infestans [1]; ""*"" compound tested at 40 ppm)","Test C rating (% disease control) (Phytophthora infestans [2]; ""*"" compound tested at 40 ppm)",other results
CC(C)NC(=O)N1CCC(c2nc(C3=NOC(c4ccccc4)C3)cs2)CC1 (stereo not drawn) [compound 15],–,–,–,Test A rating (% disease control) (Plasmopara viticola; [3]): 86%; Test B rating (% disease control) (Phytophthora infestans [1]; [3]): 100%; Test C rating (% disease control) (Phytophthora infestans [2]; [3]): 91%
CCC(C)NC(=O)N1CCC(c2nc(C3=NOC(c4ccccc4)C3)cs2)CC1 (stereo not drawn) [compound 17],86%,100%,95%,–
"4-[4-(4,5-dihydro-5-phenyl-3-isoxazoly)-2-thiazolyl]-N-pentyl-1-piperidinecarboxamide [Example 4]",86%,100%,76%,–
CNC(=Nc1cc(C)ccc1C)N1CCC(c2nc(C3=NOC(c4ccccc4)C3)cs2)CC1 (stereo not drawn) [compound 28],43%,95%,0%,–
Cc1ccc(C)c(N=C(N(C)C)N2CCC(c3nc(C4=NOC(c5ccccc5)C4)cs3)CC2)c1 (stereo not drawn) [compound 24],79%,97%,39%,–
CCCC(=O)C(=O)N1CCC(c2nc(C3=NOC(c4c(F)cccc4F)C3)cs2)CC1 (stereo not drawn) [compound 67],100%,100%,99%,–
CC(C)C(O)C(=O)N1CCC(c2nc(C3=NOC(c4c(F)cccc4F)C3)cs2)CC1 (mixture of isomers) [compound 55],–,–,–,"Test A rating (% disease control) (Plasmopara viticola; ""**"" compound tested at 10 ppm): 10%; Test B rating (% disease control) (Phytophthora infestans [1]; ""**"" compound tested at 10 ppm): 100%; Test C rating (% disease control) (Phytophthora infestans [2]; ""**"" compound tested at 10 ppm): 99%"
"4-[4-(4,5-dihydro-5-phenyl-3-isoxazolyl)-2-thiazolyl]-N-2-propen-1-yl]-1-piperidinecarbothioamide [Example 5]",83%,99%,73%,–
Cc1ccc(C)c(N=C(N)N2CCC(c3nc(C4=NOC(c5c(F)cccc5F)C4)cs3)CC2)c1 (stereo not drawn) [compound 31],99%,100%,97%,–
"C#CCCC(=O)N1CCC(c2nc(C3=NOC(c4ccccc4F)C3)cs2)CC1 (stereo not drawn) [Example 8, 1-[4-[4-[4,5-dihydro-5-(2-fluorophenyl)-3-isoxazolyl]-2-thiazolyl]-1-piperidinyl]-4-pentyn-1-one]",–,–,–,Test A rating (% disease control) (Plasmopara viticola; [3]): 46%; Test B rating (% disease control) (Phytophthora infestans [1]; [3]): 40%; Test C rating (% disease control) (Phytophthora infestans [2]; [3]): 0%
"methyl 4-[4-(4,5-dihydro-5-phenyl-3-isoxazoly)-2-thiazolyl]-N-(2,5-dimethylphenyl)-1-piperidinecarboximidate [Example 3]",99%,100%,99%,–
Cc1ccc(C)c(C(=O)NC(=O)N2CCC(c3nc(C4=NOC(c5c(F)cccc5F)C4)cs3)CC2)c1 (stereo not drawn) [compound 36],0%,99%,99%,–
Cc1ccc(C)c(C(=O)NC(=O)N2CCC(c3nc(C4=NOC(c5ccccc5F)C4)cs3)CC2)c1 (stereo not drawn) [compound 37],0%,63%,0%,–
CCCCCCC(=O)N1CCC(c2nc(C3=NOC(c4c(F)cccc4F)C3)cs2)CC1 (stereo not drawn) [compound 73],99%,100%,99%,–
"CSC(=Nc1cc(C)ccc1C)N1CCC(c2nc(C3=NOC(c4ccccc4)C3)cs2)CC1 (stereo not drawn) [Example 1, methyl 4-[4-(4,5-dihydro-5-phenyl-3-isoxazolyl)-2-thiazolyl]-N-(2,5-dimethylphenyl)-1-piperidinecarboximidothioate]",96%,97%,53%,–
O=C(C(O)Cc1ccccc1)N1CCC(c2nc(C3=NOC(c4c(F)cccc4F)C3)cs2)CC1 (mixture of isomers) [compound 50],0%,87%,0%,–
CC(C)C(=O)C(=O)N1CCC(c2nc(C3=NOC(c4c(F)cccc4F)C3)cs2)CC1 (stereo not drawn) [compound 68],99%,100%,93%,–
O=C(COCCC(F)(F)F)N1CCC(c2nc(C3=NOC(c4c(F)cccc4F)C3)cs2)CC1 (stereo not drawn) [compound 75],–,–,–,"Test A rating (% disease control) (Plasmopara viticola; ""**"" compound tested at 10 ppm): 100%; Test B rating (% disease control) (Phytophthora infestans [1]; ""**"" compound tested at 10 ppm): 100%; Test C rating (% disease control) (Phytophthora infestans [2]; ""**"" compound tested at 10 ppm): 97%"

Compound,"Test A rating (% disease control) (Plasmopara viticola; ""*"" compound tested at 40 ppm)","Test B rating (% disease control) (Phytophthora infestans [1]; ""*"" compound tested at 40 ppm)","Test C rating (% disease control) (Phytophthora infestans [2]; ""*"" compound tested at 40 ppm)",other results
CC(=O)OCC(=O)N1CCC(c2nc(C3=NOC(c4c(F)cccc4F)C3)cs2)CC1 (stereo not drawn) [compound 64],80%,100%,68%,–
CCC(C)C(=O)C(=O)N1CCC(c2nc(C3=NOC(c4c(F)cccc4F)C3)cs2)CC1 (stereo not drawn) [compound 70],100%,100%,88%,–
O=C(C(=O)N1CCC(c2nc(C3=NOC(c4c(F)cccc4F)C3)cs2)CC1)c1ccco1 (stereo not drawn) [compound 72],100%,100%,99%,–
CSC(=Nc1cc(C)ccc1C)N1CCC(c2nc(C3=NOC(c4c(F)cccc4F)C3)cs2)CC1.I (stereo not drawn) [compound 26],99%,100%,93%,–
CCC(O)C(=O)N1CCC(c2nc(C3=NOC(c4c(F)cccc4F)C3)cs2)CC1 (stereo not drawn) [compound 48],88%,100%,91%,–
CCCNC(=O)N1CCC(c2nc(C3=NOC(c4ccccc4)C3)cs2)CC1 (stereo not drawn) [compound 14],–,–,–,Test A rating (% disease control) (Plasmopara viticola; [3]): 88%; Test B rating (% disease control) (Phytophthora infestans [1]; [3]): 100%; Test C rating (% disease control) (Phytophthora infestans [2]; [3]): 99%
Cc1ccc(C)c(N=C(NC#N)N2CCC(c3nc(C4=NOC(c5c(F)cccc5F)C4)cs3)CC2)c1 (stereo not drawn) [compound 42],99%,100%,99%,–
CC(=O)C(=O)N1CCC(c2nc(C3=NOC(c4c(F)cccc4F)C3)cs2)CC1 (stereo not drawn) [compound 65],88%,100%,99%,–
Cc1ccc(C)c(N=C(N(C)C)N2CCC(c3nc(C4=NOC(c5c(F)cccc5F)C4)cs3)CC2)c1 (stereo not drawn) [compound 38],8%,33%,0%,–
Cc1cc(C)c(C(=O)C(=O)N2CCC(c3nc(C4=NOC(c5ccccc5F)C4)cs3)CC2)c(C)c1 (stereo not drawn) [compound 51],0%,52%,0%,–
O=C(C(=O)N1CCC(c2nc(C3=NOC(c4ccccc4F)C3)cs2)CC1)c1ccco1 (stereo not drawn) [compound 47],85%,33%,0%,–
CNC(=Nc1cc(C)ccc1C)N1CCC(c2nc(C3=NOC(c4c(F)cccc4F)C3)cs2)CC1 (stereo not drawn) [compound 35],0%,86%,26%,–
Cc1cc(C(F)(F)F)nn1C(=O)C(=O)N1CCC(c2nc(C3=NOC(c4c(F)cccc4F)C3)cs2)CC1 (stereo not drawn) [compound 43],0%,25%,0%,–
CC(C)C(O)C(=O)N1CCC(c2nc(C3=NOC(c4c(F)cccc4F)C3)cs2)CC1 (stereo not drawn) [compound 49],97%,98%,100%,–
"Cc1ccc(C)c(N=CN2CCC(c3nc(C4=NOC(c5ccccc5)C4)cs3)CC2)c1 (stereo not drawn) [Example 2, N-[[4-[4-(4,5-dihydro-5-phenyl-3-isoxazolyl)-2-thiazolyl]-1-piperidinyl]methylene]-2,5-dimethylbenzenamine]",–,–,–,Test A rating (% disease control) (Plasmopara viticola; [3]): 17%; Test B rating (% disease control) (Phytophthora infestans [1]; [3]): 88%; Test C rating (% disease control) (Phytophthora infestans [2]; [3]): 0%
"CC(CC(=O)N1CCC(c2nc(C3=NOC(c4ccccc4F)C3)cs2)CC1)C(F)(F)F (stereo not drawn) [Example 6, 1-[4-[4-[4,5-dihydro-5-(2-fluorophenyl)-3-isoxazolyl]-2-thiazolyl]-1-piperidinyl]-4,4,4-trifluoro-3-methyl-1-butanone]",–,–,–,Test A rating (% disease control) (Plasmopara viticola; [3]): 0%; Test B rating (% disease control) (Phytophthora infestans [1]; [3]): 33%; Test C rating (% disease control) (Phytophthora infestans [2]; [3]): 0%
Cc1ccc(C)c(S(=O)(=O)NC(=O)N2CCC(c3nc(C4=NOC(c5ccccc5)C4)cs3)CC2)c1 (stereo not drawn) [compound 33],0%,0%,0%,–
